Values belong to the molecule of their own block, whether it stands above or below them.
Columns and labels:
[1] = Study on the crystal form of salt of compound (crystallization with counter ion acids); format: physicochemical; details: volatilization method
Protocol: To identify which counter ion acids can form crystal form of salt of compound by selecting different counter ion acids according to suitable crystallization methods.
1 mL of the solution was taken into a glass bottle, and different counter ion acids (molar reaction ratio of base: acid=1:1.2) were added, and then the glass bottle was opened at room temperature to volatile solvent. The amorphous or oily was pulped with 200 μL of ethyl acetate.
1) 10 mg of crystal form B of free base was weighed, and 200 μL of methanol solvent was added, and counter ion acid (molar reaction ratio of base: acid=1:1.2) was added respectively at 25° C.
2) 85 mg of crystal form B of free base was weighed, and ethyl acetate was added to produce a clear solution. Different counter ion acids (molar reaction ratio of base: acid=1:1.2) were added respectively at 25° C.

[2] = Pharmacokinetic assay in Balb/c mice (plasma and brain tissue); format: in vivo; details: p.o. 5 mg/kg
Protocol: (III). Pharmacokinetic Assay in Balb/c Mice
Balb/c mice were used as test animals. The pharmacokinetic behavior in mouse body (plasma and brain tissue) of the compounds of Examples of the present invention was studied at an oral administration dose of 5 mg/kg.
Male Balb/c mice (12 mice per group), purchased from Shanghai Jiesijie Laboratory Animal Co., LTD, with Certificate No.: SCXK (Shanghai) 2013-0006 N0.311620400001794.
The test compound was dissolved in 0.5% CMC-Na (1% Tween80) by sonication to formulate a clear solution or homogeneous suspension.
After an overnight fast, male Balb/c mice (12 mice per group) were administered p.o. with the test compound at an administration dose of 5 mg/kg and an administration volume of 10 mL/kg.
0.2 mL of blood was taken from the heart of the mouse before administration and at 1, 2, 4, 8 and 24 hours after administration, and the mice were sacrificed with CO2. The samples were stored in EDTA-K2 tubes, and centrifuged for 6 minutes at 4° C., 6000 rpm to separate the plasma. The plasma samples were stored at −80° C. Whole brain tissue was taken out, weighed, placed in a 2 mL centrifuge tube, and stored at −80° C.
1) 160 μL of acetonitrile was added to 40 μL of the plasma sample for precipitation, and then the mixture was centrifuged for 5 to 20 minutes at 3500×g.
2) 90 μL of acetonitrile containing internal standard (100 ng/mL) was added to 30 μL of the plasma and brain homogenate sample for precipitation, and then the mixture was centrifuged for 8 minutes at 13000 rpm.
3) 70 μL of water was added to 70 μL of the treated supernatant and mixed by vortex for 10 minutes. 20 μL of the supernatant was taken to analyze the concentration of the test compound by LC/MS/MS. LC/MS/MS analytical instrument: AB Sciex API 4000 Qtrap.
• Liquid chromatography condition: Shimadzu LC-20AD pump • Chromatographic column: Agilent ZORBAX XDB-C18 (50×2.1 mm, […]); Mobile phase: Eluent A was 0.1% formic acid in water, and Eluent B was acetonitrile • Flow rate: 0.4 mL/min • Elution time: 0-4.0 minutes, the eluent is as follows:
The main parameters of pharmacokinetics were calculated by WinNonlin 6.1.

[3] = Solid stability experiment of crystal form of salt; format: physicochemical; details: for Maximum single impurity increase % / Total impurity increase %: listed as Crystal form B of p-toluenesulfonate
Protocol: 4. Solid Stability Experiment
The physicochemical stability of crystal form of salt of compound N-(trans-3-(2-(4-(2,3-dichlorophenyl)piperazin-1-yl)ethyl)cyclobutyl)oxazole-2-carboxamide under the conditions of light 50001×, high temperature 60° C., high humidity 92.5% RH and high temperature and high humidity 50° C. 75% RH was investigated, which provided a basis for crystal form screening and compound crystal form storage.
About 1 mg of different crystal forms of salt were taken and placed under the conditions of light 50001×, high temperature 60° C., high humidity 92.5% RH, high temperature and high humidity 50° C. 75% RH for 5 days and 10 days. The salt content was determined by HPLC and external standard method, and the change of relevant substances was calculated by chromatographic peak area normalization method.

[4] = Stability study of salt (5 days and 10 days, HPLC related substances); format: physicochemical
Protocol: 2.1.3 Stability Study of Salt
Hydrochloride and p-toluenesulfonate of N-(trans-3-(2-(4-(2,3-dichlorophenyl)piperazin-1-yl)ethyl)cyclobutyl)oxazole-2-carboxamide were weighed about 1 mg, respectively, and then placed under light (5000 lux), high temperature (60° C.), high humidity (92.50 RH), high temperature and high humidity (50° C. and 75% RH) for 5 days and 10 days, then a diluent DMSO was added to prepare a solution with salt concentration of about 1 mg/mL.
The chromatographic peak area normalization method was used to calculate the changes of related substances.

[5] = GWGS-5 d (high temperature and high humidity)
[6] = GWGS-10 d (high temperature and high humidity)

Compound: O=C(N[C@H]1C[C@H](CCN2CCN(c3cccc(Cl)c3Cl)CC2)C1)c1ncco1 [Example 12A, N-(Trans-3-(2-(4-(2,3-dichlorophenyl)piperazin-1-yl)ethyl)cyclobutyl)oxazole-2-carboxamide]
Peak time tmax ([2]; Brain): 1 h
Peak time tmax ([2]; Plasma): 0.5 h

Compound: O=C(N[C@H]1C[C@H](CCN2CCN(c3cccc(Cl)c3Cl)CC2)C1)c1cccc2ncccc12 [Example 19A, N-(trans-3-(2-(4-(2,3-dichlorophenyl)piperazin-1-yl)ethyl)cyclobutyl)quinoline-5-carboxamide]
Peak time tmax ([2]; Brain): 1 h
Peak time tmax ([2]; Plasma): 0.5 h

Compound: O=C(N[C@H]1C[C@H](CCN2CCN(c3cccc(Cl)c3Cl)CC2)C1)c1ncco1 [crystal form B of p-toluenesulfonate, N-(trans-3-(2-(4-(2,3-dichlorophenyl)piperazin-1-yl)ethyl)cyclobutyl)oxazole-2-carboxamide]
Maximum single impurity increase % ([3]; High humidity, 5 Days): <0.02%
Total impurity increase % ([3]; High humidity, 5 Days): <0.02%
Total impurity increase % ([3]; High temperature, 10 Days): <0.02%
Maximum single impurity increase % ([3]; Light, 5 Days): 0.13%
Total impurity increase % ([3]; Light, 5 Days): 0.03%
Maximum single impurity increase % ([3]; Light, 10 Days): 0.13%
Total impurity increase % ([3]; Light, 10 Days): 0.19%
single impurity ([3]; light conditions): increases significantly
crystal form stability ([3]; other conditions than light): stable

Compound: O=C(N[C@H]1C[C@@H](CCN2CCN(c3cccc(Cl)c3Cl)CC2)C1)C1(O)CC1 [Example 6B, N-(Cis-3-(2-(4-(2,3-dichlorophenyl)piperazin-1-yl)ethyl)cyclobutyl)-1-hydroxycyclopropane-1-carboxamide]
Peak time tmax ([2]; Brain): 1 h
Peak time tmax ([2]; Plasma): 0.5 h

Compound: O=C(N[C@H]1C[C@H](CCN2CCN(c3cccc(Cl)c3Cl)CC2)C1)c1ncco1 [p-toluenesulfonate, N-(trans-3-(2-(4-(2,3-dichlorophenyl)piperazin-1-yl)ethyl)cyclobutyl)oxazole-2-carboxamide]
RRT 0.190 Area % ([4]; 0 d): 0.317%
RRT 0.210 Area % ([4]; 0 d): 0.073%
RRT 1.000 Area % ([4]; 0 d): 99.217%
RRT 1.050 Area % ([4]; 0 d): 0.149%
RRT 1.190 Area % ([4]; 0 d): 0.178%
RRT 1.540 Area % ([4]; 0 d): 0.067%
total Area % (related substances) ([4]; 0 d): 0.783%
RRT 0.190 Area % ([4]; GS-5 d (high humidity)): 0.213%
RRT 0.210 Area % ([4]; GS-5 d (high humidity)): 0.074%
RRT 1.000 Area % ([4]; GS-5 d (high humidity)): 99.310%
RRT 1.050 Area % ([4]; GS-5 d (high humidity)): 0.145%
RRT 1.190 Area % ([4]; GS-5 d (high humidity)): 0.177%
RRT 1.540 Area % ([4]; GS-5 d (high humidity)): 0.080%
total Area % (related substances) ([4]; GS-5 d (high humidity)): 0.690%
RRT 0.190 Area % ([4]; GS-10 d (high humidity)): 0.233%
RRT 0.210 Area % ([4]; GS-10 d (high humidity)): 0.075%
RRT 1.000 Area % ([4]; GS-10 d (high humidity)): 99.298%
RRT 1.050 Area % ([4]; GS-10 d (high humidity)): 0.143%
RRT 1.190 Area % ([4]; GS-10 d (high humidity)): 0.180%
RRT 1.540 Area % ([4]; GS-10 d (high humidity)): 0.071%
total Area % (related substances) ([4]; GS-10 d (high humidity)): 0.702%
RRT 0.190 Area % ([4]; GW-5 d (high temperature)): 0.163%
RRT 0.210 Area % ([4]; GW-5 d (high temperature)): 0.072%
RRT 1.000 Area % ([4]; GW-5 d (high temperature)): 99.400%
RRT 1.050 Area % ([4]; GW-5 d (high temperature)): 0.121%
RRT 1.190 Area % ([4]; GW-5 d (high temperature)): 0.175%
RRT 1.540 Area % ([4]; GW-5 d (high temperature)): 0.068%
total Area % (related substances) ([4]; GW-5 d (high temperature)): 0.600%
RRT 0.190 Area % ([4]; GW-10 d (high temperature)): 0.224%
RRT 0.210 Area % ([4]; GW-10 d (high temperature)): 0.075%
RRT 1.000 Area % ([4]; GW-10 d (high temperature)): 99.319%
RRT 1.050 Area % ([4]; GW-10 d (high temperature)): 0.131%
RRT 1.190 Area % ([4]; GW-10 d (high temperature)): 0.178%
RRT 1.540 Area % ([4]; GW-10 d (high temperature)): 0.073%
total Area % (related substances) ([4]; GW-10 d (high temperature)): 0.681%
RRT 0.190 Area % [4, 5]: 0.348%
RRT 0.210 Area % [4, 5]: 0.072%
RRT 1.000 Area % [4, 5]: 99.204%
RRT 1.050 Area % [4, 5]: 0.137%
RRT 1.190 Area % [4, 5]: 0.170%
RRT 1.540 Area % [4, 5]: 0.070%
total Area % (related substances) [4, 5]: 0.796%
RRT 0.190 Area % [4, 6]: 0.319%
RRT 0.210 Area % [4, 6]: 0.074%
RRT 1.000 Area % [4, 6]: 99.246%
RRT 1.050 Area % [4, 6]: 0.128%
RRT 1.190 Area % [4, 6]: 0.168%
RRT 1.540 Area % [4, 6]: 0.065%
total Area % (related substances) [4, 6]: 0.754%
RRT 0.190 Area % ([4]; GZ-5 d (light)): 0.266%
RRT 0.210 Area % ([4]; GZ-5 d (light)): 0.072%
RRT 0.890 Area % ([4]; GZ-5 d (light)): 0.130%
RRT 1.000 Area % ([4]; GZ-5 d (light)): 99.184%
RRT 1.050 Area % ([4]; GZ-5 d (light)): 0.101%
RRT 1.190 Area % ([4]; GZ-5 d (light)): 0.171%
RRT 1.540 Area % ([4]; GZ-5 d (light)): 0.075%
total Area % (related substances) ([4]; GZ-5 d (light)): 0.816%
RRT 0.190 Area % ([4]; GZ-10 d (light)): 0.324%
RRT 0.210 Area % ([4]; GZ-10 d (light)): 0.073%
RRT 0.890 Area % ([4]; GZ-10 d (light)): 0.232%
RRT 1.000 Area % ([4]; GZ-10 d (light)): 99.028%
RRT 1.050 Area % ([4]; GZ-10 d (light)): 0.115%
RRT 1.190 Area % ([4]; GZ-10 d (light)): 0.162%
RRT 1.540 Area % ([4]; GZ-10 d (light)): 0.066%
total Area % (related substances) ([4]; GZ-10 d (light)): 0.972%
changes in impurities ([4]; high temperature, high humidity, and high temperature and high humidity, 5 and 10 days): no significant changes in impurities

Compound: O=C(NC1CC(CCN2CCCN(c3cccc(Cl)c3Cl)CC2)C1)c1ccco1 (stereo not drawn) [Example 25, N-(3-(2-(4-(2,3-Dichlorophenyl)-1,4-diazepan-1-yl)ethyl)cyclobutyl)furan-2-carboxamide]
Peak time tmax ([2]; Brain): 1 h
Peak time tmax ([2]; Plasma): 1 h

Compound: O=C(NC1CC(CCN2CCN(c3cccc(Cl)c3Cl)CC2)C1)c1nccs1 (stereo not drawn) [Example 7, N-(3-(2-(4-(2,3-Dichlorophenyl)piperazin-1-yl)ethyl)cyclobutyl)thiazole-2-carboxamide]
Peak time tmax ([2]; Brain): 1 h
Peak time tmax ([2]; Plasma): 0.5 h

Now from value to molecule:

Phenomenon after the addition of acid ([1]; crystal form B of free base in tetrahydrofuran, base: acid=1:1.2): Clear
Results ([1]; tetrahydrofuran volatilized at room temperature): Oil or gel
Compound: CS(=O)(=O)O [1.0M methanesulfonic acid (in ethanol)]

Peak time tmax ([2]; Brain): 1 h
Peak time tmax ([2]; Plasma): 1 h
Compound: O=C(N[C@H]1C[C@H](CCN2CCN(c3cccc(Cl)c3Cl)CC2)C1)c1nccs1 [Example 7A, N-(Trans-3-(2-(4-(2,3-dichlorophenyl)piperazin-1-yl)ethyl)cyclobutyl)thiazole-2-carboxamide]

Peak time tmax ([2]; Brain): 1 h
Peak time tmax ([2]; Plasma): 0.5 h
Compound: O=C(NC1CC(CCN2CCN(c3cccc(Cl)c3Cl)CC2)C1)c1ncco1 (stereo not drawn) [Example 12, N-(3-(2-(4-(2,3-Dichlorophenyl)piperazin-1-yl)ethyl)cyclobutyl)oxazole-2-carboxamide]

Peak time tmax ([2]; Brain): 1 h
Peak time tmax ([2]; Plasma): 0.5 h
Compound: O=C(NC1CC(CCN2CCN(c3cccc(Cl)c3Cl)CC2)C1)C1(O)CC1 (stereo not drawn) [Example 6, N-(3-(2-(4-(2,3-Dichlorophenyl)piperazin-1-yl)ethyl)cyclobutyl)-1-hydroxycyclopropane-1-carboxamide]

Peak time tmax ([2]; Brain): 1 h
Peak time tmax ([2]; Plasma): 0.5 h
Compound: O=C(N[C@H]1C[C@H](CCN2CCN(c3cccc(Cl)c3Cl)CC2)C1)C1(O)CC1 [Example 6A, N-(Trans-3-(2-(4-(2,3-dichlorophenyl)piperazin-1-yl)ethyl)cyclobutyl)-1-hydroxycyclopropane-1-carboxamide]

Peak time tmax ([2]; Brain): 1 h
Peak time tmax ([2]; Plasma): 0.5 h
Compound: CCN(C)C(=O)NC1CC(CCN2CCN(c3cccc4sccc34)CC2)C1 (stereo not drawn) [Example 24, 3-(3-(2-(4-(Benzo[b]thiophen-4-yl)piperazin-1-yl)ethyl)cyclobutyl)-1-ethyl-1-methylurea]

Peak time tmax ([2]; Brain): 1 h
Peak time tmax ([2]; Plasma): 0.5 h
Compound: O=C(N[C@H]1C[C@@H](CCN2CCN(c3cccc(Cl)c3Cl)CC2)C1)c1ncco1 [Example 12B, N-(Cis-3-(2-(4-(2,3-dichlorophenyl)piperazin-1-yl)ethyl)cyclobutyl)oxazole-2-carboxamide]

Reference: patent publication US20240254109A1, “SALT CONTAINING PIPERAZINE POLYCYCLIC DERIVATIVE, CRYSTAL FORM THEREOF, PREPARATION METHOD THEREFOR, AND USE THEREOF” (Shanghai Hansoh Biomedical Co., Ltd., priority 2021, published 2024)
